Patent publication US9623125B2, “Controlled synthesis of polyglutamates with low polydispersity and versatile architectures” (Fundacion de la Comunidad Valenciana “Centro De …, priority 2011, dated 2017)

Test: Stability of NCA under different storage conditions
Assay type: physicochemical
Set-up: key: a “−” symbol means the monomer was found already polymerized/degraded; “+” means monomer was found to be stable
Method: Absence of HCl in the purified NCAs was confirmed by means of a silver nitrate solution. The presence of HCl can be identified by the precipitation of silver chloride when some drops of a solution 1M of AgNO3 are added to a solution of the monomer. The purity of the NCA is the main criteria to ensure long term storage. This issue was corroborated with stability studies of the NCA under different storage conditions.

Measured: Stability of NCA on storage

O=C(CCC1NC(=O)OC1=O)OCc1ccccc1 (centres unmarked) [NCA, Benzyl 3-(2,5-dioxooxazol-4-il)propanoate]
+: 4° C., 5 d | 4° C., 6 d | 4° C./Ar, 5 d | 4° C./Ar, 6 d | 4° C./Ar, 7 d | 4° C./Ar, 8d | 4° C./Ar, 10 d | 4° C./Ar, 11 d | −23° C., 5 d | −23° C., 6 d | −23° C., 7 d | −23° C., 8d | −23° C., 10 d | −23° C., 11 d | −23° C., 20 d | −23° C., 50 d | −23° C./Ar, 5 d | −23° C./Ar, 6 d | −23° C./Ar, 7 d | −23° C./Ar, 8d | −23° C./Ar, 10 d | −23° C./Ar, 11 d | −23° C./Ar, 20 d | −23° C./Ar, 50 d
−: 4° C., 8d | 4° C., 10 d | 4° C., 11 d | 4° C., 20 d | 4° C., 50 d | R.T, 5 d | R.T, 6 d | R.T, 7 d | R.T, 8d | R.T, 10 d | R.T, 11 d | R.T, 20 d | R.T, 50 d | R.T/Ar, 6 d | R.T/Ar, 7 d | R.T/Ar, 8d | R.T/Ar, 10 d | R.T/Ar, 11 d | R.T/Ar, 20 d | R.T/Ar, 50 d
